# Results taken from PMC9064246 (RSC Advances, 2019).
# Target: T1, Lactobacillus reuteri 121 inulosucrase (LrInu; InuΔ699His) (Limosilactobacillus reuteri, UniProt Q8GP32)
# T1 sequence (Q8GP32 37-699 limits assumed): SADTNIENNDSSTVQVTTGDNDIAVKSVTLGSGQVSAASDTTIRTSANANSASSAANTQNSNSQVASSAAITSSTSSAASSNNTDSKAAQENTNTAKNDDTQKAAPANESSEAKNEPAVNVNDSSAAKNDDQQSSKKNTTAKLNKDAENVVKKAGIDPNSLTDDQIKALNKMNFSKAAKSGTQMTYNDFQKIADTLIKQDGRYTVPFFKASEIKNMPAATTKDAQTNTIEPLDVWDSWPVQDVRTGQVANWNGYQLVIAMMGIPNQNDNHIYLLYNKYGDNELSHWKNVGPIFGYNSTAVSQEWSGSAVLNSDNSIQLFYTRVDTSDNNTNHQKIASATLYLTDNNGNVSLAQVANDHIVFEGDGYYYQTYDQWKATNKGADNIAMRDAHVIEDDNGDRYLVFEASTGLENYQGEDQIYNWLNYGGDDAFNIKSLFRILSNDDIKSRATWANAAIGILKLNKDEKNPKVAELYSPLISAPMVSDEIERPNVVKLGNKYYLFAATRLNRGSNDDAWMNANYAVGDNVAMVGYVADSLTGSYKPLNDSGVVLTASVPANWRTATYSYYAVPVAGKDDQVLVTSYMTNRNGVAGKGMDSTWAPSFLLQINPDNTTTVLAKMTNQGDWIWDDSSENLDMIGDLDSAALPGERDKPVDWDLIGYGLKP
# Assay: FOS synthesis, TLC / HPLC / MALDI-TOF MS
# Type: biochemical
# Conditions: 0.5 M sucrose, 5 U/mL enzyme, 50 mM acetate pH 5.5, 30 °C, 24 h
structure (smiles),measurement,value
OC[C@H]1O[C@@](CO)(O[C@H]2O[C@H](CO)[C@@H](O)[C@H](O)[C@H]2O)[C@@H](O)[C@@H]1O [sucrose],"FOS synthesis, TLC / HPLC / MALDI-TOF MS","transglycosylation products of R483A, R483F, R483Y and R483W"
